Earlier results in US20220016128A1, “METHODS, SYSTEM, AND KIT FOR MONITORING, DIAGNOSING, AND TREATING IMPULSIVE AGGRESSION” (Supernus Pharmaceuticals, Inc., priority 2016, published 2022).

Legend:
[1] = oral dose
[2] = acidic to slightly acidic media versus neutral to slightly alkaline pH (physiologic pH range of the gastro-intestinal tract)

## CCc1c(C)[nH]c2c1C(=O)C(CN1CCOCC1)CC2 (centres unmarked) [molindone, 3-Ethyl-6,7-dihydro-2-methyl-5-(morpholinomethyl)indol-4(5H)-one]
[1]
  plasma elimination half-life: about 2 hours
[2]
  solubility: greater solubility in acidic to slightly acidic media than in neutral to slightly alkaline pH values
